In patent publication US11963962B2, “Platelet count-agnostic methods of treating myelofibrosis” (Sierra Oncology, Inc., priority 2018, dated 2024):

How the values were obtained:
Assay type in all cases: in vivo, human
myelofibrosis [1] = test: SIMPLIFY-1 dynamic and time-to-event analyses of RBC transfusions
Text: The SIMPLIFY-1 (S1) trial, a double-blind, active-controlled Phase 3 study in which 432 patients received randomized treatment with MMB or RUX for 24 weeks was previously reported (Mesa R A, Kiladjian J J, Catalano J V. et al. “Simplify-1: A phase III randomized trial of momelotinib versus ruxolitinib in j anus kinase inhibitor—naïve patients with myelofibrosis”, Journal of Clinical Oncology, 2017; 35:3844-50).
Since transfusion burden is of significant concern to clinicians and patients, to better understand the dynamics of RBC transfusions we further examined the S1 data through statistical models utilizing a variety of novel anemia benefit endpoints including time until transfusion and overall intensity of transfusions across time. The proportions of patients with 0 and 4 transfusions were calculated and time-to-event analyses examining time-to-first and time-to-fifth units transfused also conducted. Since transfusions typically comprise 2 units, the fifth unit transfused represents a de facto third transfusion event. The number of units transfused were also considered to be recurrent events and examined with and without patients' baseline characteristics as covariates. Finally, a mixture model, based on a zero-inflated negative binomial (ZINB) distribution fit to the transfusion data, was employed to compare between the treatment groups the proportions of subjects with zero transfusion burden and the mean transfusion rates.

myelofibrosis [2] = test: Combined analysis of TI response in TD patients from SIMPLIFY-1, SIMPLIFY-2 and '1672; conditions: combined TD patients from SIMPLIFY-1, SIMPLIFY-2 and '1672 (n=152)
Text: This aggregate data is representative of a continuum of Intermediate/High Risk MF patients.

myelofibrosis [3] = test: SIMPLIFY-2 Phase 3 trial: splenic response rate (SRR); conditions: for SRR Absolute risk difference (Newcombe 95% CI): MMB vs Control
Text: In the SIMPLIFY-2 trial (NCT02101268), the efficacy and safety of MMB was studied in anemic or thrombocytopenic subjects with myelofibrosis who were previously treated with ruxolitinib (RUX). […] Specifically, anemic or thrombocytopenic myelofibrosis patients who had and were previously treated with (RUX) (for at least 28 days) were studied over 24 weeks for response to MMB versus best available treatment (BAT), primarily RUX (89% of patients) but alternatively no treatment or other standard interventions, after which period all patients could receive extended MMB treatment. Previously treated RUX patients who either required red blood cell transfusions or RUX dose reduction with grade 3 thrombocytopenia, anemia, and/or bleeding at grade 3 or worse, with palpable spleen of at least 5 cm and without grade 2 or greater peripheral neuropathy were included in the trial. There was no lower limit for the required baseline platelet count. The primary endpoint was a reduction by at least 35% in the spleen volume at 24 weeks compared with baseline.
FIG. 8A: SIMPLIFY-1 study of MMB in a first line population previously untreated with JAKi. For SIMPLIFY-1, the goal was non-inferiority over ruxolitinib (RUX) (MMB: N=215 subjects, and RUX: N=217 subjects). FIG. 8B: SIMPLIFY-2 study of second line population of anemic or thrombocytopenic subjects previously treated with RUX (red blood cell (RBC) transfusions on RUX=64%. RUX dose adjustment for: thrombocytopenia=21%; anemia/hematoma=35%). For SIMPLIFY-2, the goal was superiority over best available treatment (BAT) (MMB: N=104 subjects, and BAT: N=52 subjects). In both SIMPLIFY-1 and SIMPLIFY: Primary endpoint: >=35% reduction in spleen volume at 24 weeks. Secondary endpoints: Total symptom score (TSS) response at 24 weeks. Effects on RBC transfusion requirements.
The SIMPLIFY 2 clinical trial data was reanalyzed for subgroups of subjects having particular baseline platelet counts in the MMB versus BAT arms of the study.
Patient data was analyzed according to the following baseline platelet count (PLT) subgroups and in particular according to a threshold PLT of 150×10^9/L: 1) PLT<50×10^9/L; 2) 50×10^9/L≤PLT<100×10^9/L; 3) 100×10^9/L≤PLT<150×10^9/L. The reanalyzed data is presented in Table 14 (SIMPLIFY 2).

[4] = SIMPLIFY-1, 24 week randomized treatment period

Structure (SMILES): Cl.N#CCNC(=O)c1ccc(-c2ccnc(Nc3ccc(N4CCOCC4)cc3)n2)cc1 [MMB, N-(cyanomethyl)-4-(2-(4-morpholinophenylamino)pyrimidin-4-yl)benzamide]
- Kaplan-Meier estimate of the proportion of patients who did not require any units transfused (myelofibrosis [1]; [4]): 73%
- proportion of patients requiring 4 or fewer units (myelofibrosis [1]; [4]): 83%
- factor of increase of the odds of having zero units transfused (myelofibrosis [1]; SIMPLIFY-1, first 24 weeks, ZINB covariate model, MMB vs RUX): 9.3
- hazard ratio, units transfused as recurrent events (myelofibrosis [1]; SIMPLIFY-1, MMB vs RUX, models with and without baseline covariates): 0.522
- ≥8 week transfusion independence rate (myelofibrosis [2]): 48.7%
- ≥12 week transfusion independence rate (myelofibrosis [2]): 44.1%
- SRR Responders (myelofibrosis [3]; 50 ≤ PLT < 100 ×10^9/L): 1
- SRR proportion (Wilson 95% CI) (myelofibrosis [3]; 50 ≤ PLT < 100 ×10^9/L): 0.03
- SRR Absolute risk difference (Newcombe 95% CI) (myelofibrosis [3]; 50 ≤ PLT < 100 ×10^9/L): −0.02
- SRR Responders (myelofibrosis [3]; 100 ≤ PLT < 150 ×10^9/L): 3
- SRR proportion (Wilson 95% CI) (myelofibrosis [3]; 100 ≤ PLT < 150 ×10^9/L): 0.13
- SRR Absolute risk difference (Newcombe 95% CI) (myelofibrosis [3]; 100 ≤ PLT < 150 ×10^9/L): 0.03
- SRR Responders (myelofibrosis [3]; ITT): 7
- SRR proportion (Wilson 95% CI) (myelofibrosis [3]; ITT): 0.07
- SRR Absolute risk difference (Newcombe 95% CI) (myelofibrosis [3]; ITT): 0.01
- SRR Responders (myelofibrosis [3]; PLT < 50 ×10^9/L): 0
- SRR proportion (Wilson 95% CI) (myelofibrosis [3]; PLT < 50 ×10^9/L): 0.00
